Measurements as given in patent US12336981B2, “Compounds and compositions for the inhibition of NAMPT” (Valo Health, Inc., priority 2010, dated 2025).
Several values for one entry are separate records, joined by “and”; a condition that tells them apart may be missing. Equal values may be shown once. Read-outs that look alike come from different tables or passages of the source.

Columns and labels:
NAMPT = target: T1, NAMPT (Homo sapiens, UniProt P43490); test: Biochemical inhibition assay: NAMPT enzymatic reaction, NMN quantified by mass spectrometry; details: read-out: Biochem IC50
T1 construct: His tag; host or cells: E. coli
In short: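 Inhibition of E. coli-expressed His-tagged human NAMPT, measured as NMN formation by mass spectrometry after a 30 min room-temperature reaction containing 1 μM NAM, 100 μM PRPP and 2.5 mM ATP.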

A2780 cells = test: In-vitro cell proliferation assay (SRB), A2780 cells; assay type: cell-based; details: A2780 cells, 72 hours, read-out: A2780 IC50
In short: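 Viable cells measured by SRB staining after 6% TCA fixation, absorbance 570 nm. Media-only background subtracted; % inhibition derived at two compound concentrations.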

[1] = Homo sapiens, A2780, 72 h, SRB assay

T1 sequence (P43490 whole entry): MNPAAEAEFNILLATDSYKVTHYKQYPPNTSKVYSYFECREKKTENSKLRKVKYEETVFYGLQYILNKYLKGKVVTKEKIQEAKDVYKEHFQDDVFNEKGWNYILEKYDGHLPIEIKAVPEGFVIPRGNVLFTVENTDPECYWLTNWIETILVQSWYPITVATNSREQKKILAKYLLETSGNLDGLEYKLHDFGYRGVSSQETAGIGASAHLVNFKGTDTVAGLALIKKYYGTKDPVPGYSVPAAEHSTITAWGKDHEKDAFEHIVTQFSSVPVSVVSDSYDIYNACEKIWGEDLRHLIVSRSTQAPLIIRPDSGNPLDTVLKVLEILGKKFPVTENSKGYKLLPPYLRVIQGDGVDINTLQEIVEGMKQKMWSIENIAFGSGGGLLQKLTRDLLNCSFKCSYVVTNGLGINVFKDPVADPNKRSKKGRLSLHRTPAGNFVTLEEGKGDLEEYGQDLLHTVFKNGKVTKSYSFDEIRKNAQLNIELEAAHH

Compound | IC50 (NAMPT; NAMPT enzymatic assay) | IC50 (A2780 cells; Homo sapiens, A2780, 72 h, SRB) [nM] | IC50 (NAMPT; NAMPT enzymatic reaction) [nM] | IC50 (A2780 cells; [1]) [nM] | IC50 (A2780 cells; SRB) [nM]
O=C(NCc1ccc(S(=O)(=O)c2cnn(-c3ccc(F)cc3)c2)cc1)c1cc2ccncc2o1 [N-({4-[1-(4-fluorophenyl)-1H-pyrazole-4-sulfonyl]phenyl}methyl)furo[2,3-c]pyridine-2-carboxamide] | 6.9 nM | 7.4 |  |  | 
COc1cc(-n2cccn2)ccc1S(=O)(=O)c1ccc(CNC(=O)c2cc3ccncc3o2)cc1 | 6.5 nM | 6 |  |  | 
Cc1cc(F)cc(S(=O)(=O)c2ccc(CNC(=O)c3cc4ccncc4s3)cc2)c1 |  | 0.6 | 1 |  | 
COc1c(Cl)ccc(S(=O)(=O)c2ccc(CNC(=O)c3cnc4nccn4c3)cc2)c1Cl |  | 25.5 | 6.6 |  | 
Cc1c(F)cccc1S(=O)(=O)c1ccc(CNC(=O)c2ccc3nccn3c2)cc1 |  | 13.2 | 46.9 |  | 
O=C(NCc1ccc(S(=O)(=O)c2ccccc2OCc2ccccc2)cc1)c1cc2cnccc2[nH]1 [N-[(4-{[2-(benzyloxy)benzene]sulfonyl}phenyl)methyl]-1H-pyrrolo[3,2-c]pyridine-2-carboxamide] |  |  | 18 | 33 | 
O=C(NCc1ccc(S(=O)(=O)c2cnc3ccccc3c2)cc1)c1cc2cnccc2[nH]1 [N-{[4-(quinoline-3-sulfonyl)phenyl]methyl}-1H-pyrrolo[3,2-c]pyridine-2-carboxamide] | 16.3 nM | 2.9 |  |  | 
O=C(NCc1ccc(S(=O)(=O)c2cccc3c2OCO3)cc1)c1cc2ccncc2s1 [N-{[4-(2H-1,3-benzodioxole-4-sulfonyl)phenyl]methyl}thieno[2,3-c]pyridine-2-carboxamide] | 3.3 nM | 7.2 |  |  | 
CN(C)CCOc1cccc(S(=O)(=O)c2ccc(CNC(=O)c3cc4ccncc4o3)cc2)c1 | 11.8 nM | 5.8 |  |  | 
O=C(NCc1ccc(S(=O)(=O)c2cc(Cl)cc(Cl)c2)cc1)c1cnc2[nH]ncc2c1 |  | 2.1 | 6.7 |  | 
CCOc1ccccc1S(=O)(=O)c1ccc(CNC(=O)c2cc3cnccc3[nH]2)cc1 [N-({4-[(2-ethoxybenzene)sulfonyl]phenyl}methyl)-1H-pyrrolo[3,2-c]pyridine-2-carboxamide] |  |  | 11 | 2 | 
O=C(NCc1ccc(S(=O)(=O)c2cccc3c2OCC3)cc1)c1ccc2nccn2c1 [N-{[4-(2,3-dihydro-1-benzofuran-7-sulfonyl)phenyl]methyl}imidazo[1,2-a]pyridine-6-carboxamide] | 12.5 nM | 6.4 |  |  | 
CC(C)Oc1cccc(S(=O)(=O)c2ccc(CNC(=O)c3cc4ccncc4o3)cc2)c1 | 12.6 nM | 14.4 |  |  | 
O=C(NCc1ccc(S(=O)(=O)c2ccc(OC(F)(F)F)c(F)c2)cc1)c1cnc2[nH]ncc2c1 [N-[(4-{[3-fluoro-4-(trifluoromethoxy)benzene]sulfonyl}phenyl)methyl]-1H-pyrazolo[3,4-b]pyridine-5-carboxamide] | 17.4 nM | 13.7 |  |  | 
O=C(NCc1ccc(S(=O)(=O)c2ccccc2Oc2ccccc2)cc1)c1cc2ccncc2s1 [N-({4-[(2-phenoxybenzene)sulfonyl]phenyl}methyl)thieno[2,3-c]pyridine-2-carboxamide] |  |  | 11 | 69.7 | 
Cc1cc(S(=O)(=O)c2ccc(CNC(=O)c3cc4ccncc4s3)cc2)ccc1F [N-({4-[(4-fluoro-3-methylbenzene)sulfonyl]phenyl}methyl)thieno[2,3-c]pyridine-2-carboxamide] |  |  | 7 | 2.9 | 
O=C(NCc1ccc(S(=O)(=O)c2cccc(N3CCCCC3)c2)cc1)c1cnc2nccn2c1 | 5.1 nM and 1.2 nM | 11.4 |  |  | 5.7

Compound | IC50 (NAMPT; NAMPT enzymatic assay) | IC50 (A2780 cells; Homo sapiens, A2780, 72 h, SRB) [nM] | IC50 (NAMPT; NAMPT enzymatic reaction) [nM] | IC50 (A2780 cells; [1]) [nM] | IC50 (A2780 cells; SRB) [nM]
COc1ccc(S(=O)(=O)c2ccc(CNC(=O)c3ccc4nccn4c3)cc2)cc1F [N-({4-[(3-fluoro-4-methoxybenzene)sulfonyl]phenyl}methyl)imidazo[1,2-a]pyridine-6-carboxamide] |  | 2.89 | 5.95 |  | 
COc1ccc(Cl)c(S(=O)(=O)c2ccc(CNC(=O)c3cc4ccncc4s3)cc2)c1 |  | 5.3 | 4.9 |  | 
O=C(Nc1ccc(S(=O)(=O)N2CCCCC2)cc1)c1cc2cnccc2[nH]1 [N-[4-(piperidine-1-sulfonyl)phenyl]-1H-pyrrolo[3,2-c]pyridine-2-carboxamide] |  |  | 8 | 6 | 
CCN(CC)C(=O)c1ccc(F)c(S(=O)(=O)c2ccc(CNC(=O)c3cc4cnccc4[nH]3)cc2)c1 | 38.4 nM | 26.2 |  |  | 
O=C(NCc1ccc(S(=O)(=O)N2CCCCC2)cc1)c1ccc2nccn2c1 [N-{[4-(piperidine-1-sulfonyl)phenyl]methyl}imidazo[1,2-a]pyridine-6-carboxamide] |  |  | 18 | 1160 | 
CCCCOc1cccc(S(=O)(=O)c2ccc(CNC(=O)c3cnc4[nH]ncc4c3)cc2)c1 [N-({4-[(3-butoxybenzene)sulfonyl]phenyl}methyl)-1H-pyrazolo[3,4-b]pyridine-5-carboxamide] |  | 67.5 | 38.4 |  | 
O=C(NCc1ccc(S(=O)(=O)c2cccc(C(F)(F)F)n2)cc1)c1cc2ccncc2s1 [N-({4-[6-(trifluoromethyl)pyridine-2-sulfonyl]phenyl}methyl)thieno[2,3-c]pyridine-2-carboxamide] | 2.1 nM | 2.2 |  |  | 
O=C(NCc1ccc(S(=O)(=O)c2ccccc2)cc1)c1ccc2nncn2c1 [N-{[4-(benzenesulfonyl)phenyl]methyl}-[1,2,4]triazolo[4,3-a]pyridine-6-carboxamide] |  |  | 301 | > 10000 | 
Cc1cc(-n2cccn2)ccc1S(=O)(=O)c1ccc(CNC(=O)c2cc3ccncc3s2)cc1 | 1.5 nM | 3.1 |  |  | 
Cc1ccc(S(=O)(=O)c2ccc(CNC(=O)c3cnc4nccn4c3)cc2)cn1 [N-{[4-(6-methylpyridine-3-sulfonyl)phenyl]methyl}imidazo[1,2-a]pyrimidine-6-carboxamide] | 5.9 nM | 55.5 |  |  | 
COc1ccc(S(=O)(=O)c2ccc(CNC(=O)c3cnc4nccn4c3)cc2)c(C(F)(F)F)c1 | 7 nM | 65.7 |  |  | 
O=C(NCc1ccc(S(=O)(=O)c2cc(F)cc(N3CCOCC3)c2)cc1)c1ccc2nccn2c1 | 3 nM | 0.6 |  |  | 
COc1ccc(OC)c(S(=O)(=O)c2ccc(CNC(=O)c3cc4cnccc4[nH]3)cc2)c1 [N-({4-[(2,5-dimethoxybenzene)sulfonyl]phenyl}methyl)-1H-pyrrolo[3,2-c]pyridine-2-carboxamide] | 17 nM | 6 |  |  | 
COc1ccc(C(C)C)cc1S(=O)(=O)c1ccc(CNC(=O)c2cnc3[nH]ncc3c2)cc1 [N-[(4-{[2-methoxy-5-(propan-2-yl)benzene]sulfonyl}phenyl)methyl]-1H-pyrazolo[3,4-b]pyridine-5-carboxamide] | 89.2 nM | 29.4 |  |  | 
O=C(NCc1ccc(S(=O)(=O)c2ccc(OC(F)(F)F)c(F)c2)cc1)c1cc2ccncc2s1 | 11.5 nM | 11.5 |  |  | 
O=C(NCc1ccc(S(=O)(=O)c2cnc3n2CCCCC3)cc1)c1cnc2[nH]ncc2c1 [N-[(4-{5H,6H,7H,8H,9H-imidazo[1,2-a]azepine-3-sulfonyl}phenyl)methyl]-1H-pyrazolo[3,4-b]pyridine-5-carboxamide] | 31.6 nM | 12.3 |  |  | 
O=C(NCc1ccc(S(=O)(=O)c2ccccc2)cc1)c1cc2nccnc2s1 [N-{[4-(benzenesulfonyl)phenyl]methyl}thieno[2,3-b]pyrazine-6-carboxamide] |  |  | 52 | > 30000 | 
